Experimental data taken from patent US20260125675A1, “DOWNREGULATING TROLLS USING NOVEL ANTISENSE OLIGONUCLEOTIDES TO OVERCOME RESISTANCE TO CHEMOTHERAPY” (H. LEE MOFFITT CANCER CENTER AND RESEARCH INSTITUTE, INC., priority 2022, published 2026).

Assays:
Type in all cases: cell-based, human
Conditions in all cases: treated 72 hr
[1] = tested on: TROLL-3; experiment: qRT-PCR for TROLL-3 in CAID cells treated with the indicated drugs
Method: (§1) 195. We were interested in determining the effect of treatment with adriamycin, docetaxel, or paclitaxel on the levels of TOLL-2 and TROLL-3. qRT-PCR was performed for TROLL-2 and TROLL-3 in CAID cells treated with the indicated drugs for 72 hr. Western blosts of the levels of phosphorylated and total AKT, and relative quantification were determined (FIG. 1). […] We next observed that the levels of TROLL-3 are higher in lung adenocarcinoma (LUAD) with EGFR mutations with EGFR mutations in 2 distinct cohorts of patients (the TCGA cohort and Moffitt cohort) (FIGS. 2 and 3). Next we looked at the association association between pAKT levels and resistance to treatment in a panel of LUAD cell lines. Western blot levels of phosphorylated and total AKT in the indicated cell lines. Red boxes denote cell lines where PAKT levels are higher in the cells resistant to the indicated inhibitors compared to the respective parental cells (FIG. 4). Such increase in pAKT levels is associated with the resistance to anti-cancer treatment. To see the effect of TROLL-2 or TROLL-3 downregulation of pAKT levels in LUAD cells, we prefromed western blosts of the lvels of phosphorylated and total AKT in parental and KRASi resistant or EGFRi resistant cells using untreated on siRNA knockdown of TROLL-2 or TROLL-3 (FIGS. 5 and 6). We observed that downregulation of TROLL-2 or TROLL-3 reduces pAKT levels in KRASi and EGFRi resistant LUAD cells. Next we identified antisense LNA GapmeRs targeting TROLL-2 and TROLL-3 (50 nM-2 experiments). We used […]-PCR (qRT-PCR) for TROLL-2 and TROLL-3 in CAID cells treated with the indicated Antisense LNA GapmeRs for 48 hr. The following reagents were purchased from Qiagen: negative control=LG00000002-DDB, TROLL-2 A=LG00807687-DDB. TROLL-2 B=LG00807688-DDB, TROLL-2 C=LG00807689-DDB. TROLL-2 D=LG00807691-DDB, TROLL-2 E=LG00807694-DDB, TROLL-3 A=LG00807697-DDB, TROLL-3 B=LG00807698-DDB, TROLL-3 C=LG00807699-DDB, TROLL-3 D=LG00807700-DDB, and TROLL-3 E=LG00807701-DDB (FIG. 7). […]

[2] = tested on: AKT; experiment: Western blot of phosphorylated and total AKT in drug-treated CAID cells
Method: as §1

[3] = tested on: TROLL-2; experiment: qRT-PCR for TROLL-2 in CAID cells treated with the indicated drugs
Method: as §1

SMILES	levels of TROLL-3 (qRT-PCR) [1]	AKT pathway activation (phosphorylated and total AKT, western blot) [2]	levels of TROLL-2 (qRT-PCR) [3]
COc1cccc2c1C(=O)c1c(O)c3c(c(O)c1C2=O)C[C@@](O)(C(=O)CO)C[C@@H]3O[C@H]1C[C@H](N)[C@H](O)[C@H](C)O1 [adriamycin]	increases	activation of the AKT pathway	increases
CC(=O)O[C@@]12CO[C@@H]1C[C@H](O)[C@@]1(C)C(=O)[C@H](O)C3=C(C)[C@@H](OC(=O)[C@H](O)[C@@H](NC(=O)OC(C)(C)C)c4ccccc4)C[C@@](O)([C@@H](OC(=O)c4ccccc4)[C@H]21)C3(C)C [docetaxel]	increases	activation of the AKT pathway	increases
CC(=O)O[C@H]1C(=O)[C@@]2(C)[C@H]([C@H](OC(=O)c3ccccc3)[C@]3(O)C[C@H](OC(=O)[C@H](O)[C@@H](NC(=O)c4ccccc4)c4ccccc4)C(C)=C1C3(C)C)[C@]1(OC(C)=O)CO[C@@H]1C[C@@H]2O [paclitaxel]	increases	activation of the AKT pathway	increases
